Results: paper PMC2603005, “Structural insights into phenylethanolamines high-affinity binding site in NR2B from binding and molecular modeling studies” (Molecular Brain, 2008)
Where two headings read alike, the source gives them in different places. Values belong to the molecule of their own block, whether it stands above or below them.

Experiments:
NR1/NR2B(D101A) = system: NR1/NR2B(D101A); design: method as in PMID 14534359; details: D101A mutation, HEK293 membranes; cited from earlier work
NR1/NR2B(F176A) = system: NR1/NR2B(F176A); design: method as in PMID 14534359; details: F176A mutation, HEK293 membranes; cited from earlier work
NR1-1a/NR2B receptors = NR1-1a/NR2B receptors (Rattus norvegicus, UniProt P35439+Q00960); assay: cell-based
[1] = target: T1, 6 × His-ATD2B (amino-terminal domain of NR2B subunit), wild type (Rattus norvegicus, UniProt Q00960); assay: biochemical
[2] = target: T1, 6 × His-ATD2B (amino-terminal domain of NR2B subunit), wild type; assay: CD ligand displacement: RO25,6981 displacing saturating ifenprodil on 6 × His-ATD2B; assay type: binding; design: representation of the ATD2B construct (Arg27 to Arg393) with 6xHis-tag and linker; made in house
Experimental: DLS measurements were made with DynaPro (Protein Solutions) and CD spectra were measured at 25°C on a Jasco J-715 Spectropolarimeter equipped with a 0.1 cm path-length cuvette (Jasco Corporation, Tokyo, Japan) as described previously. For the CD assays, the refolded protein was concentrated to 1 mg/ml using Vivaspin 2 ml concentrator (Vivascience). […] The CD spectra of the wild-type and mutant 6 × His-ATD2B proteins in the absence and presence of a ligand were recorded from 190 to 250 nm. The CD spectrum of Buffer 2 was subtracted from all the CD spectra obtained. […] All experiments were performed using at least two separate batches of induced and refolded 6 × His-ATD2B proteins (both wild-type and mutants), each batch in duplicates or triplicates. The dose-dependent binding curves of ligands to 6 × His-ATD2B were fitted by the following equation: […]

rat brain cortex = details: [3H]ifenprodil binding; cited from earlier work
NR1/NR2B = target: NR1/NR2B; design: method as in PMID 15769547, PMID 15056006; details: NR1/NR2B transfected HEK293 and mouse L(tk-) cell line; cited from earlier work

T1 sequence (Q00960 27-393): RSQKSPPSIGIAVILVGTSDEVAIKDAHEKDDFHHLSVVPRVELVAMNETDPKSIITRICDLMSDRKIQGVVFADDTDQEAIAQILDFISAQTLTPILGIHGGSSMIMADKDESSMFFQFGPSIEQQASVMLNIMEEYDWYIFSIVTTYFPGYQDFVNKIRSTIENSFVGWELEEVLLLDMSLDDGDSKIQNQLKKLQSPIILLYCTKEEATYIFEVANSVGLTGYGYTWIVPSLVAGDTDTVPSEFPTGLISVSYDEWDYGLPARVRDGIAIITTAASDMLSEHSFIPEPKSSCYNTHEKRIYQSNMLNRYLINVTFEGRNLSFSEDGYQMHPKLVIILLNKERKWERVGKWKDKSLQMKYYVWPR
NR1-1a/NR2B receptors, sequence (Q00960 27-1482, other chains not shown): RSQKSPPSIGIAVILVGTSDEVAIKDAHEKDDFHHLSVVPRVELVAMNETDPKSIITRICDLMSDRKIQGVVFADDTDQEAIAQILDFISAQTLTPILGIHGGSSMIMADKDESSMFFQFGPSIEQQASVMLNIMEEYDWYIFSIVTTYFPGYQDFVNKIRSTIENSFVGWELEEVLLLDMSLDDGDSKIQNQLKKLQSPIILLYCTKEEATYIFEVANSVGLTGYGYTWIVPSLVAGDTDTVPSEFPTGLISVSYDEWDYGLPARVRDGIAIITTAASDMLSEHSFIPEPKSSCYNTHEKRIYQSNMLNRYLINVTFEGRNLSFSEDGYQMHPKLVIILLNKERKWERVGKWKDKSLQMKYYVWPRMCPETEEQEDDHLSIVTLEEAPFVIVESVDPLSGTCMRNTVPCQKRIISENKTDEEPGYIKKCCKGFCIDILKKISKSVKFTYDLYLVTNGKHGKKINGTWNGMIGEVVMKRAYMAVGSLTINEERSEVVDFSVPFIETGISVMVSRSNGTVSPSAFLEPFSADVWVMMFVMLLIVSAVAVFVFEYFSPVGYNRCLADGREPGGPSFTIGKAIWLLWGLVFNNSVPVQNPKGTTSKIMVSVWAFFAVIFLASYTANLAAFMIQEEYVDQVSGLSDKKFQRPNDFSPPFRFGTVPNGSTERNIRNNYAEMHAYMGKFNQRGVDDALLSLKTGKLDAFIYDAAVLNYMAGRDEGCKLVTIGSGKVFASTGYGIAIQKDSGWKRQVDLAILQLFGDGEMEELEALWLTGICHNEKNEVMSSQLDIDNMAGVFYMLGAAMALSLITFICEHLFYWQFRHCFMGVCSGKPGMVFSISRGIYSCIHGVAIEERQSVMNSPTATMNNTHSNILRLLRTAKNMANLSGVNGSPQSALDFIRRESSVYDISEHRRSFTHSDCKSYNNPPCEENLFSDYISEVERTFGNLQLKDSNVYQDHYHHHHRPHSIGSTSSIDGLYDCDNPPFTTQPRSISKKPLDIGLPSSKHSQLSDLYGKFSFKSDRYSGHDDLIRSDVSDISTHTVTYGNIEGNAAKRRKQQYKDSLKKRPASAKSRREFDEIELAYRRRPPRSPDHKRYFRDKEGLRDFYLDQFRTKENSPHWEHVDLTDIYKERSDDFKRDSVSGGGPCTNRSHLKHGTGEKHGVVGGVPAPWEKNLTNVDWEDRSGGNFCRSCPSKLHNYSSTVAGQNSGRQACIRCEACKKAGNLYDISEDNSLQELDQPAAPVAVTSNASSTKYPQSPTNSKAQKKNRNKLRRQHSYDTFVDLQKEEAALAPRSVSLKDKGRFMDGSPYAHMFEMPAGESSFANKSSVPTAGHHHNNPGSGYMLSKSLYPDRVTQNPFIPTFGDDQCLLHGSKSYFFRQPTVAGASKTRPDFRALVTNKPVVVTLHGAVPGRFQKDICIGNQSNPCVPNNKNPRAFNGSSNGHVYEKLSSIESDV

Molecule: [^3H]RO25,6981
[3H]RO25,6981 binding to membranes (NR1/NR2B(D101A)): complete loss
[3H]RO25,6981 binding to membranes (NR1/NR2B(F176A)): complete loss

IC50 (NR1-1a/NR2B receptors): 59 ± 1 nM
Kd ([1]; Buffer-9 refolded protein, CD at 25°C, mean ± S.E., n = 5): 7 ± 3 nM
Kd ([1]; Buffer-12 refolded protein, CD at 25°C, n = 5): 4 ± 1 nM
Kd ([1]; Buffer-13 refolded protein, CD): 4 ± 2 nM
Ki ([2]; Affinity (Ki) on displacing ifenprodil): 4 ± 1 nM
Ki ([2]; Affinity (Ki) on displacing ifenprodil, Buffer-12 refolded protein, in presence of saturating 5 μM ifenprodil): 2 ± 1 nM
Ki ([2]; Affinity (Ki) on displacing ifenprodil, Buffer-13 refolded protein, in presence of saturating 5 μM ifenprodil): 3 ± 1 nM
Ki ([2]; range over Buffers -9, -12 and -13, n = 5 per buffer, read-out: Ki values): 2 to 4 nM
Molecule: C[C@@H](CN1CCC(Cc2ccccc2)CC1)[C@@H](O)c1ccc(O)cc1 [RO25,6981]

Molecule: CC(C(O)c1ccc(O)cc1)N1CCC(Cc2ccccc2)CC1 (stereo not drawn) [[^3H]ifenprodil]
Kd (rat brain cortex): 36 nM
Kd (NR1/NR2B): 34 to 79 nM
